The text below walks through data of patent publication US7981896B2 (Athersys, Inc., priority 2006, dated 2011).

This test deals with T1, human histamine H3 receptor (Homo sapiens, UniProt Q9Y5N1).
T1 construct: endogenous in cells; host or cells: HT1080-Gqαi5 RAGE clone (RAGE-H3), human fibrosarcoma line; integrated RAGE vector pFG8-HH3 supplies exon 1, the cell's own gene supplies the other exons
Put plainly: Competition radioligand binding assay with [125I]iodoproxyfan on membranes of RAGE-H3 (HT1080-Gqαi5) cells expressing human H3 receptor. Particulars: ~0.15 nM [125I]iodoproxyfan, 1.5 hrs at room temperature, head does not name the quantity (apparent Ki by Cheng-Prussof). Here is the method: Representative compounds of the present invention that were prepared by the procedures of Examples 1-83 were evaluated in binding assays against cells expressing human H3 receptor by the following procedure.
[^125I]iodoproxyfan (2000 Ci/mmol) was obtained from Amersham Bioscience (Piscataway, N.J.). All other chemicals were either from Sigma-Aldrich (St. Louis, Mo.) or Tocris Cookson Inc. (Ellisville, Mo.).
The human histamine H3 receptor was stably expressed in HT1080 cells containing the chimeric G-protein, Gq[…]i5 (Coward et al., Anal Biochem 1999; 270:242-8). HT1080-Gqαi5 cells were grown in alpha-modified MEM containing 10% fetal bovine serum and 7 μg/ml blasticidin at 37° C. in 5% CO2/95% atmosphere. Cells (4.8×10^9) were irradiated with 50 rads from a ^137Cs source and the pFG8-HH3 RAGE (Random Activation of Gene Expression; see Harrington et al., Nature Biotechnology. 2001; 19:440-45) vector was subsequently integrated into the cells via electroporation (250V, 600 μF, 50Ω). The RAGE vector pFG8-HH3 contained cDNA sequence coding for the first exon (83 amino acids) of human H3 receptor. After electroporation, cells were plated in T75 flasks and grown in alpha-modified MEM. The culture medium was replaced 48 hrs after electroporation with alpha-modified MEM, 10% fetal bovine serum, 500 μg/ml hygromycin B and 3 μg/ml puromycin. Medium was replaced every four days during cell expansion. To identify RAGE activated cells expressing the H3 receptor, pools of approximately 10,000 colonies (5×10^7-1.5×10^8 cells total) were screened by PCR for the desired gene product (using primers specific to the RAGE vector and exon 2 of the H3 receptor). […] Positive 100 cells/well pools were identified by PCR, confirmed by sequencing, and subsequently subcloned to 0.8 cells/well. Once clones expressing the H3 receptor were identified by PCR analysis, assays (FLIPR or radioligand binding) were performed to confirm that the activated gene produced functional protein. The protein expression in the initial clones obtained from the RAGE library was increased by growth in the presence of methotrexate. Since the integrated RAGE vector contains the DHFR gene, such treatment selects for cells that have amplified the genetic locus containing the RAGE insert. Subclones obtained after methotrexate amplification were tested for functional activity in FLIPR assays to identify the clone that was most suitable for HTS. The final HT1080-Gqαi5 RAGE clone (RAGE-H3) expressing the human histamine H3 receptor was grown in alpha-modified MEM containing 10% fetal bovine serum, 3 μg/ml puromycin, 500 μg/ml hygromycin B, 3.2 μM methotrexate at 37° C. in 5% CO2/95% atmosphere.
RAGE-H3 cells (10^9) were washed twice with cold PBS, scraped off the plates, and centrifuged at 1000×g for 5 minutes. Cells were resuspended in ice-cold 10 mM Tris HCl, pH 7.4, containing 5 mM EDTA and protease inhibitor cocktail tablets (Roche Molecular Biochemicals). After incubating on ice for 10 min, the cells were homogenized with a dounce homogenizer or a polytron tissue grinder, and centrifuged at 1000×g for 10 min at 4° C. The resulting supernatant was centrifuged at 32,000×g for 30 min at 4° C. The membrane pellets were resuspended in 50 mM Tris HCl, pH 7.4, and stored at −80° C. until use. Protein concentration was determined by the Bradford method (Bio-Rad Laboratories, CA).
Binding assays were carried out in 96-well polypropylene plates in 50 mM Tris HCl, pH 7.4, containing 1 mM EDTA. Reaction mixtures contained 100 μl of membrane suspension, 50 μl of 4% DMSO, and 50 μl of increasing amounts of [^125I]iodoproxyfan (final concentration 0.0005-1.8 nM for human H3 receptor saturation binding assay). Nonspecific binding was defined by adding 10 μM clobenpropit to the reaction mixtures. […]

T1 sequence (Q9Y5N1 whole entry): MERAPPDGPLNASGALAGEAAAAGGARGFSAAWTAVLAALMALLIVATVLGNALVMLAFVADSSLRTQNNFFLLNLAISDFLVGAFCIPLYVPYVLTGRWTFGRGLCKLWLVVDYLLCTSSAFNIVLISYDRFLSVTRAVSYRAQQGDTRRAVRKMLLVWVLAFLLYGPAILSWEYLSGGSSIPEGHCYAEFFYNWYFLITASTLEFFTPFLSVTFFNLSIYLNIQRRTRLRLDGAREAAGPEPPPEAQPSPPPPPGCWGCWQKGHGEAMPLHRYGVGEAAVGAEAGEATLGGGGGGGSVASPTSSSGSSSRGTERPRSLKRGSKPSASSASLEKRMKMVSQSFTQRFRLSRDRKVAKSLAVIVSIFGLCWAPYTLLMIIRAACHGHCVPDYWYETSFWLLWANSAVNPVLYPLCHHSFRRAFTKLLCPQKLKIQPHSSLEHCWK

For `Cc1cc(C(=O)NC2CCCCC2)n(-c2ccc(OCCCN3CCC[C@H]3C)cc2)n1` [Example 74, 5-Methyl-2-{4-[3-(2R-methylpyrrolidin-1-yl)propoxy]phenyl}-2H-pyrazole-3-carboxylic acid cyclohexylamide], the Ki is less than 1 nM.
As to `Cc1cc(C(C)(C)C)n(-c2ccc(OCCCN3CCCCC3)cc2)n1` [Example 34, 5-tert-Butyl-3-methyl-1-[4-(3-piperidin-1-ylpropoxy)-phenyl]-1H-pyrazole], the Ki is less than 100 nM.
For `Cc1cc(C(=O)NC2CCCCC2)nn1-c1ccc(OCCCN2CCCC2)cc1` [Example 83, 5-Methyl-1-[4-(3-pyrrolidin-1-ylpropoxy)phenyl]-1H-pyrazole-3-carboxylic acid cyclohexylamide], the Ki was less than 10 nM.
For `Cc1c2c(nn1-c1ccc(OCCCN3CCCCC3)cc1)CCC2` [Example 60, 3-Methyl-2-[4-(3-piperidin-1-yl-propoxy)-phenyl]-2,4,5,6-tetrahydro-cyclopentapyrazole] the value was less than 10 nM; for `Cc1nn(-c2ccc(OCCCN3CCC[C@H]3C)cc2)c2c1CCc1ccccc1-2` [Example 2, 3-Methyl-1-{4-[3-(2R-methylpyrrolidin-1-yl)propoxy]phenyl}-4,5-dihydro-1H-benzo[g]indazole], less than 10 nM.
As for `c1ccc2c(c1)cnn2-c1ccc(OCCCN2CCCC2)cc1` [Example 20, 1-[4-(3-Pyrrolidin-1-ylpropoxy)phenyl]-1H-indazole], the Ki was less than 10 nM.
In the case of `Cc1cc(C(=O)NC2CCCCC2)n(-c2ccc(OC3CCN(C4CCC4)CC3)cc2)n1` [Example 13, 2-[4-(1-Cyclobutylpiperidin-4-yloxy)phenyl]-5-methyl-2H-pyrazole-3-carboxylic acid cyclohexylamide], the Ki is less than 10 nM.
Turning to `Cc1nn(-c2ccc(OCCCN3CCCC3)cc2)c(C)c1C` [Example 36, 3,4,5-Trimethyl-1-[4-(3-pyrrolidin-1-ylpropoxy)phenyl]-1H-pyrazole], the Ki was less than 10 nM.
For the compound `Cc1cc(C(=O)NC2CCCCC2)n(-c2ccc(OCC3CCCN4CCCCC34)cc2)n1` (stereo not drawn) [Example 82, 5-Methyl-2-[4-(octahydroquinolizin-1-ylmethoxy)phenyl]-2H-pyrazole-3-carboxylic acid cyclohexylamide], the Ki was greater than 10000 nM.
`Cc1cc(C(C)(C)C)n(-c2ccc(OCCCN3CCCC3)cc2)n1` [Example 33, 5-tert-Butyl-3-methyl-1-[4-(3-pyrrolidin-1-ylpropoxy)-phenyl]-1H-pyrazole]: the Ki was less than 10 nM.
The figure for `CCc1cc(CC)n(-c2ccc(OCCCN3CCCCC3)cc2)n1` [Example 22, 3,5-Diethyl-1-[4-(3-piperidin-1-ylpropoxy)phenyl]-1H-pyrazole] is less than 10 nM; for `Cc1cc(C(=O)Nc2ccccc2)n(-c2ccc(OCCCN3CCCC3)cc2)n1` [Example 81, 5-Methyl-2-[4-(3-pyrrolidin-1-ylpropoxy)phenyl]-2H-pyrazole-3-carboxylic acid phenylamide] it is less than 1 nM.
The figure for `Cc1c2c(nn1-c1ccc(OCCCN3CCCC3)cc1)[C@H]1CCCC[C@@H]1CC2` (relative stereo) [Example 6, 3-Methyl-2-[4-(3-pyrrolidin-1-ylpropoxy)phenyl]-4,5,5a,6,7,8,9,9a-octahydro-2H-benzo[g]indazole] is less than 10 nM; for `Cc1cc(OCCCN2CCCC2)ccc1-n1nc(C(C)C)cc1C(C)C` [Example 61, 3,5-Diisopropyl-1-[2-methyl-4-(3-pyrrolidin-1-ylpropoxy)phenyl]-1H-pyrazole] it is less than 10 nM; for `Cc1cc(C(=O)NC2CCC2)n(-c2ccc(OCCCN3CCCC3)cc2)n1` [Example 80, 5-Methyl-2-[4-(3-pyrrolidin-1-ylpropoxy)phenyl]-2H-pyrazole-3-carboxylic acid cyclobutylamide] it is less than 1 nM.
With `CC(C)c1cc(C(C)C)n(-c2ccc(OC3CCN(C4CCC4)CC3)cc2)n1` [Example 32, 1-Cyclobutyl-4-[4-(3,5-diisopropylpyrazol-1-yl)phenoxy]piperidine], the Ki was less than 10 nM.
Take `Cc1cc(C(=O)NC2CCCCC2)n(-c2ccc(OC3CCN(C4CCCC4)CC3)cc2)n1` [Example 10, 2-[4-(1-Cyclopentyl-piperidin-4-yloxy)phenyl]-5-methyl-2H-pyrazole-3-carboxylic acid cyclohexylamide]: the Ki was less than 10 nM.
The figure for `Cc1cc(-c2ccccc2)nn1-c1ccc(OCCCN2CCCC2)cc1` [Example 40, 5-Methyl-3-phenyl-1-[4-(3-pyrrolidin-1-ylpropoxy)phenyl]-1H-pyrazole] is less than 10 nM; for `Cc1cc(CC(C)C)n(-c2ccc(OCCCN3CCCC3)cc2)n1` [Example 28, 5-Isobutyl-3-methyl-1-[4-(3-pyrrolidin-1-ylpropoxy)-phenyl]-1H-pyrazole] it is less than 100 nM.
Take `Cc1cc(-c2ccccc2)n(-c2ccc(OCCCN3CCCC3)cc2)n1` [Example 41]: the Ki is less than 10 nM.
For `Cc1nn(-c2ccc(OCCCN3CCCC3)cc2)c2c1sc1ccccc12` [Example 64, 3-Methyl-1-[4-(3-pyrrolidin-1-yl-propoxy)-phenyl]-1H-benzo[4,5]thieno[3,2-c]pyrazole] the value was less than 10 nM; for `FC(F)(F)c1cc(-c2ccccc2)n(-c2ccc(OCCCN3CCOCC3)cc2)n1` [Example 53, 4-{3-[4-(5-Phenyl-3-trifluoromethyl-pyrazol-1-yl)-phenoxy]-propyl}-morpholine], less than 1000 nM; for `Cc1cc(C(=O)NC2CCCCC2)n(-c2ccc(OC3CCN(C4CCCCC4)CC3)cc2)n1` [Example 11, 2-[4-(1-Cyclohexylpiperidin-4-yloxy)phenyl]-5-methyl-2H-pyrazole-3-carboxylic acid cyclohexylamide], less than 10 nM.
The figure for `CC1CCCN1CCCOc1ccc(-n2nc(C(F)(F)F)c3oc4ccccc4c32)cc1` (stereo not drawn) [Example 67, 3-{4-[3-(2-Methyl-pyrrolidin-1-yl)-propoxy]-phenyl}-1-trifluoromethyl-3H-8-oxa-2,3-diaza-cyclopenta[a]indene] is less than 100 nM.
The figure for `Cc1cc(C(=O)NC2CCCCC2)n(-c2ccc(OCCC3CCCN3C)cc2)n1` (stereo not drawn) [Example 77, 5-Methyl-2-{4-[2-(1-methylpyrrolidin-2-yl)ethoxy]phenyl}-2H-pyrazole-3-carboxylic acid cyclohexylamide] is less than 1000 nM; for `Cc1cc(CO)n(-c2ccc(OCCCN3CCCC3)cc2)n1` [Example 14, {5-Methyl-2-[4-(3-pyrrolidin-1-ylpropoxy)phenyl]-2H-pyrazol-3-yl}methanol] it is less than 10 nM; for “3-Phenyl-1-[4-(3-pyrrolidin-1-ylpropoxy)phenyl]-4,5,6,7-tetrahydro-1H-indazole [Example 43]” it is less than 1000 nM.
As for `Cc1cc(C(C)(C)C)nn1-c1ccc(OCCCN2CCCCC2)cc1` [Example 27, 3-tert-Butyl-5-methyl-1-[4-(3-piperidin-1-ylpropoxy)-phenyl]-1H-pyrazole], the Ki is less than 10 nM.
For `COc1ccc2c(c1)-c1c(c(C)nn1-c1ccc(OCCCN3CCCC3)cc1)CC2` [Example 7, 8-Methoxy-3-methyl-1-[4-(3-pyrrolidin-1-ylpropoxy)phenyl]-4,5-dihydro-1H-benzo[g]indazole], the Ki is less than 100 nM.
Consider `CN(C)C1CCN(CCCOc2ccc(-n3nc(C(F)(F)F)c4oc5ccccc5c43)cc2)C1` (stereo not drawn) [Example 68, Dimethyl-(1-{3-[4-(1-trifluoromethyl-8-oxa-2,3-diaza-cyclopenta[a]inden-3-yl)-phenoxy]-propyl}-pyrrolidin-3-yl)-amine], for which the Ki is less than 1000 nM.
